Data as given in patent US20240308996A1, “PYRIDOPYRIDINES AND DERIVATIVES THEREOF AS SELECTIVE KINASE INHIBITORS” (University of Sharjah, priority 2023, published 2024).

Legend:
KM12 = test: NCI-60 cell line panel: KM12; assay type: cell-based; conditions: Colon Cancer; for TGI: total growth inhibition; for IC50: Homo sapiens
Protocol: (§1) It was carried out at the NCI, Bethesda, MD, USA, utilizing their standard protocol.

A549/ATCC = test: NCI-60 cell line panel: A549/ATCC; assay type: cell-based; conditions: Non-Small Cell Lung Cancer; for IC50: Homo sapiens; for TGI: total growth inhibition
Protocol: as §1

HCT-116 = test: NCI-60 cell line panel: HCT-116; assay type: cell-based; conditions: Colon Cancer; for TGI: total growth inhibition; for IC50: Homo sapiens
Protocol: as §1

COLO 205 = test: NCI-60 cell line panel: COLO 205; assay type: cell-based; design: TGI: unit not given here; conditions: Colon Cancer; for TGI: total growth inhibition; for IC50: Homo sapiens
Protocol: as §1

NCI-H322M = test: NCI-60 cell line panel: NCI-H322M; assay type: cell-based; conditions: Non-Small Cell Lung Cancer; for IC50: Homo sapiens; for TGI: total growth inhibition
Protocol: as §1

RXF 393 = test: NCI-60 cell line panel: RXF 393; assay type: cell-based; conditions: Renal Cancer; for IC50: Homo sapiens; for TGI: total growth inhibition
Protocol: as §1

A498 = test: NCI-60 cell line panel: A498; assay type: cell-based; conditions: Renal Cancer; for IC50: Homo sapiens; for TGI: total growth inhibition
Protocol: as §1

786-0 = test: NCI-60 cell line panel: 786-0; assay type: cell-based; conditions: Renal Cancer; for IC50: Homo sapiens; for TGI: total growth inhibition
Protocol: as §1

K-562 = test: NCI-60 cell line panel: K-562; assay type: cell-based; design: TGI: unit not given here; conditions: for IC50: Homo sapiens, K562, Leukemia; for TGI: Leukemia, total growth inhibition
Protocol: as §1

SW-620 = test: NCI-60 cell line panel: SW-620; assay type: cell-based; conditions: Colon Cancer; for TGI: total growth inhibition; for IC50: Homo sapiens
Protocol: as §1

NCI-H23 = test: NCI-60 cell line panel: NCI-H23; assay type: cell-based; conditions: Non-Small Cell Lung Cancer; for IC50: Homo sapiens; for TGI: total growth inhibition
Protocol: as §1

UACC-257 = test: NCI-60 cell line panel: UACC-257; assay type: cell-based; conditions: Melanoma; for IC50: Homo sapiens; for TGI: total growth inhibition
Protocol: as §1

LOX IMVI = test: NCI-60 cell line panel: LOX IMVI; assay type: cell-based; conditions: Melanoma; for IC50: Homo sapiens; for TGI: total growth inhibition
Protocol: as §1

OVCAR-4 = test: NCI-60 cell line panel: OVCAR-4; assay type: cell-based; conditions: Ovarian Cancer; for IC50: Homo sapiens
Protocol: as §1

IGROV1 = test: NCI-60 cell line panel: IGROV1; assay type: cell-based; conditions: for IC50: Homo sapiens, IGROV-1, Ovarian Cancer; for TGI: Ovarian Cancer, total growth inhibition
Protocol: as §1

MOLT-4 = test: NCI-60 cell line panel: MOLT-4; assay type: cell-based; design: TGI: unit not given here; conditions: Leukemia; for IC50: Homo sapiens; for TGI: total growth inhibition
Protocol: as §1

SK-MEL-28 = test: NCI-60 cell line panel: SK-MEL-28; assay type: cell-based; conditions: Melanoma; for IC50: Homo sapiens; for TGI: total growth inhibition
Protocol: as §1

MDA-MB-435 = test: NCI-60 cell line panel: MDA-MB-435; assay type: cell-based; design: TGI: unit not given here; conditions: Melanoma; for IC50: Homo sapiens; for TGI: total growth inhibition
Protocol: as §1

SN12C = test: NCI-60 cell line panel: SN12C; assay type: cell-based; conditions: Renal Cancer; for IC50: Homo sapiens; for TGI: total growth inhibition
Protocol: as §1

T-47D = test: NCI-60 cell line panel: T-47D; assay type: cell-based; conditions: Breast Cancer; for TGI: total growth inhibition; for IC50: Homo sapiens, T47D
Protocol: as §1

NCI-H522 = test: NCI-60 cell line panel: NCI-H522; assay type: cell-based; design: TGI: unit not given here; conditions: Non-Small Cell Lung Cancer; for IC50: Homo sapiens; for TGI: total growth inhibition
Protocol: as §1

MDA-MB-468 = test: NCI-60 cell line panel: MDA-MB-468; assay type: cell-based; conditions: Breast Cancer; for TGI: total growth inhibition; for IC50: Homo sapiens
Protocol: as §1

MALME-3M = test: NCI-60 cell line panel: MALME-3M; assay type: cell-based; conditions: Melanoma; for IC50: Homo sapiens; for TGI: total growth inhibition, in µM (unit assumed)
Protocol: as §1

HL-60(TB) = test: NCI-60 cell line panel: HL-60(TB); assay type: cell-based; design: TGI: unit not given here; conditions: Leukemia; for IC50: Homo sapiens; for TGI: total growth inhibition
Protocol: as §1

HOP-92 = test: NCI-60 cell line panel: HOP-92; assay type: cell-based; design: TGI: unit not given here; conditions: Non-Small Cell Lung Cancer; for IC50: Homo sapiens; for TGI: total growth inhibition
Protocol: as §1

SNB-75 = test: NCI-60 cell line panel: SNB-75; assay type: cell-based; design: TGI: unit not given here; conditions: CNS Cancer; for TGI: total growth inhibition; for IC50: Homo sapiens
Protocol: as §1

SNB-19 = test: NCI-60 cell line panel: SNB-19; assay type: cell-based; conditions: CNS Cancer; for TGI: total growth inhibition; for IC50: Homo sapiens
Protocol: as §1

FMS = FMS (Homo sapiens, UniProt P07333); test: Kinase IC50, FMS
SR = test: NCI-60 cell line panel: SR; assay type: cell-based; conditions: Leukemia; for IC50: Homo sapiens; for TGI: total growth inhibition
Protocol: as §1

NCI/ADR-RES = test: NCI-60 cell line panel: NCI/ADR-RES; assay type: cell-based; design: TGI: unit not given here; conditions: Ovarian Cancer; for IC50: Homo sapiens; for TGI: total growth inhibition
Protocol: as §1

HepG2 = test: MTT assay, HepG2 HCC cell line; assay type: cell-based; conditions: Homo sapiens, 48 h, mean of triplicate assays ± SEM
Protocol: (§2) Two HCC cell lines (Hep3B and HepG2) were used for screening the antiproliferative activity of the synthesized compounds. The cell lines were obtained from the European Collection of Cell Cultures (ECACC, UK) and maintained in Dulbecco's Modified Eagle Medium (DMEM: Sigma-Aldrich) supplemented with 10% fetal bovine serum (FBS) and 1% penicillin/streptomycin and incubated at 37° C. in a 5% CO2 air atmosphere. In addition, WI-38 normal cell line was used to investigate the safety of these compounds.
(§3) MTT assay was conducted to calculate the IC50 of the compounds following the reported procedure . Briefly, the cells were seeded in 96-well tissue culture plates with a density of 5×10^4 cells/well and incubated overnight at 37° C. in a 5% CO2 air atmosphere. […] DMSO was used as a negative control. After 48 h, the media were aspirated, and replaced with media containing 0.5 mg/mL of MTT tetrazolium dye (Sigma-Aldrich) for 2 h at 37° C. Finally, the media were removed and 200 μL of DMSO was added to solubilize the formazan crystals. Absorbance was then measured at 570 nm using Varioskan Flash multimode plate reader (Thermo Scientific, Massachusetts, USA).

Hep3B = test: MTT assay, Hep3B HCC cell line; assay type: cell-based; conditions: Homo sapiens, 48 h, mean of triplicate assays ± SEM
Protocol: as §2, §3

Sequence of FMS (P07333 20-972): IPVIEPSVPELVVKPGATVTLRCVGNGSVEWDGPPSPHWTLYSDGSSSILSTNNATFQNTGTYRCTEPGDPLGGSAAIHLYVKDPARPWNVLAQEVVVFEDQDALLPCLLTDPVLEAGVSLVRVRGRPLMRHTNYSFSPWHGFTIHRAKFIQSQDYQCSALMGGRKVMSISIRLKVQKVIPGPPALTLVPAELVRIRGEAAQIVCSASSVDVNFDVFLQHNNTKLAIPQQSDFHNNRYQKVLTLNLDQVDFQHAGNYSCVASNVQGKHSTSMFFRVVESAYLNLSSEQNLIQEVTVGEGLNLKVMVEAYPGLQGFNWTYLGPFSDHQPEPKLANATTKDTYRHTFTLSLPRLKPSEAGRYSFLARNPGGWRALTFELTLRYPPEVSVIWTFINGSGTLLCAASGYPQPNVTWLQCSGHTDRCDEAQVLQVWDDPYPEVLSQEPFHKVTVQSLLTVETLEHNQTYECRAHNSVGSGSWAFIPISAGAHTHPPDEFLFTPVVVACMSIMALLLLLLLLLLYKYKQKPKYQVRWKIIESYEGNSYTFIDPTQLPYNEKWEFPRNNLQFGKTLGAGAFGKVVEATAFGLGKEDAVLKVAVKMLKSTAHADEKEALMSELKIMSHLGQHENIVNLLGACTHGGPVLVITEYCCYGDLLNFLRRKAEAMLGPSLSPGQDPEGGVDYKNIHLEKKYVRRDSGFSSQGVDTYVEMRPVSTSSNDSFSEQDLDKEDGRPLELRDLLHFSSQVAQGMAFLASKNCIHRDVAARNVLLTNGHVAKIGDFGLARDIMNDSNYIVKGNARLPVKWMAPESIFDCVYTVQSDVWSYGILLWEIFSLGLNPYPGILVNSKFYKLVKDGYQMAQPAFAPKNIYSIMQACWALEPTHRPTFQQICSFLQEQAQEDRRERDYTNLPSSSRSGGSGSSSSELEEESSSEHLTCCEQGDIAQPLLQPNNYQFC

## CCN1CCN(c2ccc(NC(=O)Nc3ccc(-c4cc(C(=O)NC)c5ncccc5n4)cc3)cc2C(F)(F)F)CC1 [Compound 13c, 2-(4-(3-(4-(4-Ethylpiperazin-1-yl)-3-(trifluoromethyl)phenyl)ureido)phenyl)-N-methyl-1,5-naphthyridine-4-carboxamide]
KM12
  TGI: 6.65 µM
  IC50: 3.25 µM
A549/ATCC
  IC50: 0.47 µM
  TGI: 1.3 µM
HCT-116
  TGI: 4.83 µM
  IC50: 1.12 µM
COLO 205
  TGI: 14.20
  IC50: 4.15 µM
NCI-H322M
  IC50: 2.8 µM
  TGI: 5.2 µM
RXF 393
  IC50: 0.49 µM
  TGI: 1.66 µM
A498
  IC50: 2.74 µM
  TGI: 5.31 µM
786-0
  IC50: 0.3 µM
  TGI: 0.58 µM
K-562
  IC50: 0.66 µM
  TGI: >18.0
SW-620
  TGI: 0.62 µM
  IC50: 0.31 µM
NCI-H23
  IC50: 2.68 µM
  TGI: 5.68 µM
UACC-257
  IC50: 3.05 µM
  TGI: 5.99 µM
LOX IMVI
  IC50: 0.67 µM
  TGI: 2.66 µM
OVCAR-4
  IC50: 2.63 µM
IGROV1
  IC50: 3.01 µM
  TGI: 5.61 µM
MOLT-4
  IC50: 0.7 µM
  TGI: >18.0
SK-MEL-28
  IC50: 0.32 µM
  TGI: 0.58 µM
MDA-MB-435
  IC50: 0.27 µM
  TGI: 0.56
SN12C
  IC50: 2.77 µM
  TGI: 5.3 µM
T-47D
  TGI: > 18 µM
  IC50: 3.72 µM
NCI-H522
  IC50: 3.23 µM
  TGI: 6.40
MDA-MB-468
  TGI: 5.03 µM
  IC50: 2.48 µM
MALME-3M
  IC50: 0.29 µM
  TGI: 0.53
HL-60(TB)
  IC50: 3.42 µM
  TGI: >18.0
HOP-92
  IC50: 2.45 µM
  TGI: 5.67
SNB-75
  TGI: 3.82
  IC50: 0.84 µM
SNB-19
  TGI: 5.48 µM
  IC50: 2.97 µM
FMS
  IC50: 0.0739 ± 0.0002 µM
  potency against FMS kinase compared with sorafenib: more potent than the known drug sorafenib
SR
  IC50: 0.67 µM
  TGI: > 18 µM
NCI/ADR-RES
  IC50: 1.78 µM
  TGI: 8.09

## CC(C)NC(=O)c1cc(-c2ccc(NC(=O)Nc3ccc(N4CCN(C)CC4)c(C(F)(F)F)c3)cc2)nc2cccnc12 [Compound 13e, N-Isopropyl-2-(4-(3-(4-(4-methylpiperazin-1-yl)-3-(trifluoromethyl)phenyl)ureido)phenyl)-1,5-naphthyridine-4-carboxamide]
KM12
  TGI: 1.66 µM
  IC50: 0.8 µM
HepG2
  IC50: 0.8 ± 0.04 µM
A549/ATCC
  IC50: 0.73 µM
  TGI: 1.64 µM
Hep3B
  IC50: 1.76 ± 0.01 µM
HCT-116
  TGI: 1.35 µM
  IC50: 0.69 µM
COLO 205
  TGI: 1.86
  IC50: 0.85 µM
NCI-H322M
  IC50: 0.71 µM
  TGI: 1.55 µM
RXF 393
  IC50: 0.51 µM
  TGI: 1.11 µM
A498
  IC50: 4.71 µM
  TGI: 9.61 µM
786-0
  IC50: 0.53 µM
  TGI: 1.1 µM
K-562
  IC50: 0.92 µM
  TGI: >38.8
SW-620
  TGI: 1.3 µM
  IC50: 0.68 µM
NCI-H23
  IC50: 0.73 µM
  TGI: 1.46 µM
UACC-257
  IC50: 0.69 µM
  TGI: 1.43 µM
LOX IMVI
  IC50: 0.62 µM
  TGI: 1.15 µM
OVCAR-4
  IC50: 0.74 µM
OVCAR-4; total growth inhibition, in µM (unit assumed)
  TGI: 1.62
IGROV1
  IC50: 0.74 µM
  TGI: 1.39 µM
MOLT-4
  IC50: 0.76 µM
  TGI: 2.89
SK-MEL-28
  IC50: 0.64 µM
  TGI: 1.17 µM
MDA-MB-435
  IC50: 0.62 µM
  TGI: 1.26
SN12C
  IC50: 0.68 µM
  TGI: 1.26 µM
T-47D
  TGI: 24.7 µM
  IC50: 7.62 µM
NCI-H522
  IC50: 0.67 µM
  TGI: 1.37
MDA-MB-468
  TGI: 1.36 µM
  IC50: 0.71 µM
MALME-3M
  IC50: 0.64 µM
  TGI: 1.18
HL-60(TB)
  IC50: 0.77 µM
  TGI: 2.12
HOP-92
  IC50: 0.7 µM
  TGI: 1.33
SNB-75
  TGI: 3.97
  IC50: 0.59 µM
SNB-19
  TGI: 1.56 µM
  IC50: 0.73 µM
SR
  IC50: 1 µM
  TGI: 3.19 µM
NCI/ADR-RES
  IC50: 1.17 µM
  TGI: 3.71
